Measurements from the NIST ThermoML archive (doi:10.1016/j.jct.2019.02.028).
Numbers after ± are expanded uncertainties.

Assay: xn = mol fraction of the nth substance listed
Details: Gas, Burnett expansion method

C=C(F)C(F)(F)F [2,3,3,3-tetrafluoro-1-propene] + FCF
Details	mass density [kg/m3]
333.59 K, 860.21 kPa, x2 = 0.698	23.99 ± 0.22
333.59 K, 1119 kPa, x2 = 0.259	46.7 ± 0.37
333.59 K, 1128.1 kPa, x2 = 0.449	40.52 ± 0.38
333.59 K, 1537.9 kPa, x2 = 0.259	70.09 ± 0.75
333.6 K, 552.32 kPa, x2 = 0.874	12.52 ± 0.15
333.6 K, 589.81 kPa, x2 = 0.698	15.97 ± 0.15
333.61 K, 804.94 kPa, x2 = 0.874	18.8 ± 0.22
333.61 K, 1164.8 kPa, x2 = 0.874	28.24 ± 0.33
333.61 K, 1308.2 kPa, x2 = 0.119	63.18 ± 0.4
333.64 K, 1653.6 kPa, x2 = 0.874	42.42 ± 0.5
338.52 K, 549.73 kPa, x2 = 0.449	17.96 ± 0.16
338.52 K, 1260 kPa, x2 = 0.698	36.03 ± 0.33
338.52 K, 1772.2 kPa, x2 = 0.698	54.11 ± 0.52
338.52 K, 2408.6 kPa, x2 = 0.698	81.28 ± 0.86
338.53 K, 875.76 kPa, x2 = 0.698	23.99 ± 0.22
338.53 K, 960.84 kPa, x2 = 0.119	42.01 ± 0.25
338.53 K, 1150.8 kPa, x2 = 0.449	40.51 ± 0.37
338.53 K, 2177.3 kPa, x2 = 0.449	91.55 ± 0.98
338.54 K, 554.13 kPa, x2 = 0.259	20.7 ± 0.17
338.54 K, 801.95 kPa, x2 = 0.449	26.97 ± 0.24
338.54 K, 1788.2 kPa, x2 = 0.119	94.94 ± 0.74
338.54 K, 2337.3 kPa, x2 = 0.874	63.7 ± 0.73
338.54 K, 3099.5 kPa, x2 = 0.698	122 ± 1.5
338.54 K, 3099.9 kPa, x2 = 0.874	96.05 ± 1.2
338.54 K, 3850.5 kPa, x2 = 0.874	144.78 ± 1.7
338.55 K, 671.73 kPa, x2 = 0.119	27.97 ± 0.15
338.55 K, 1615.3 kPa, x2 = 0.449	60.93 ± 0.61
338.55 K, 1689.4 kPa, x2 = 0.874	42.41 ± 0.5
338.56 K, 599.87 kPa, x2 = 0.698	15.97 ± 0.15
338.56 K, 803.81 kPa, x2 = 0.259	31.09 ± 0.23
338.56 K, 1143.1 kPa, x2 = 0.259	46.69 ± 0.37
338.56 K, 1187 kPa, x2 = 0.874	28.23 ± 0.33
338.56 K, 1577.4 kPa, x2 = 0.259	70.08 ± 0.72
338.56 K, 2083.1 kPa, x2 = 0.259	105.4 ± 1.1
338.57 K, 819.08 kPa, x2 = 0.874	18.8 ± 0.22
338.57 K, 1339.9 kPa, x2 = 0.119	63.15 ± 0.4
338.61 K, 561.65 kPa, x2 = 0.874	12.52 ± 0.15
343.46 K, 1811.6 kPa, x2 = 0.698	54.1 ± 0.52
343.47 K, 558.86 kPa, x2 = 0.449	17.95 ± 0.16
343.47 K, 2473.8 kPa, x2 = 0.698	81.25 ± 0.84
343.48 K, 1650.8 kPa, x2 = 0.449	60.9 ± 0.6
343.48 K, 3195 kPa, x2 = 0.874	95.98 ± 1.2
343.49 K, 609.66 kPa, x2 = 0.698	15.97 ± 0.15
343.49 K, 980.04 kPa, x2 = 0.119	42 ± 0.25
343.49 K, 1173.6 kPa, x2 = 0.449	40.5 ± 0.37
343.49 K, 1284.8 kPa, x2 = 0.698	36.02 ± 0.33
343.5 K, 815.99 kPa, x2 = 0.449	26.96 ± 0.24
343.5 K, 1724.4 kPa, x2 = 0.874	42.4 ± 0.5
343.5 K, 1840.8 kPa, x2 = 0.119	94.9 ± 0.83
343.5 K, 2238.7 kPa, x2 = 0.449	91.51 ± 1.1
343.5 K, 2312 kPa, x2 = 0.119	142.7 ± 1.5
343.5 K, 3209.6 kPa, x2 = 0.698	121.97 ± 1.5
343.51 K, 683.81 kPa, x2 = 0.119	27.96 ± 0.15
343.51 K, 891.35 kPa, x2 = 0.698	23.98 ± 0.22
343.51 K, 1370.9 kPa, x2 = 0.119	63.13 ± 0.39
343.51 K, 1616.3 kPa, x2 = 0.259	70.08 ± 0.7
343.51 K, 2395 kPa, x2 = 0.874	63.68 ± 0.73
343.51 K, 2864.8 kPa, x2 = 0.449	137.45 ± 1.7
343.51 K, 4012.3 kPa, x2 = 0.874	144.62 ± 2.6
343.52 K, 1167 kPa, x2 = 0.259	46.68 ± 0.36
343.52 K, 2146.2 kPa, x2 = 0.259	105.38 ± 1.4
343.54 K, 563.91 kPa, x2 = 0.259	20.69 ± 0.17
343.54 K, 833.17 kPa, x2 = 0.874	18.79 ± 0.22
343.54 K, 1209.2 kPa, x2 = 0.874	28.23 ± 0.32
343.55 K, 818.98 kPa, x2 = 0.259	31.08 ± 0.23
343.56 K, 570.8 kPa, x2 = 0.874	12.51 ± 0.15
348.39 K, 1850.8 kPa, x2 = 0.698	54.08 ± 0.51
348.42 K, 568.01 kPa, x2 = 0.449	17.95 ± 0.16
348.42 K, 1308.9 kPa, x2 = 0.698	36.01 ± 0.33
348.42 K, 2538.2 kPa, x2 = 0.698	81.23 ± 0.83
348.43 K, 695.54 kPa, x2 = 0.119	27.95 ± 0.15
348.43 K, 1196 kPa, x2 = 0.449	40.49 ± 0.37
348.43 K, 3289.2 kPa, x2 = 0.874	95.91 ± 1.1
348.44 K, 619.54 kPa, x2 = 0.698	15.96 ± 0.15
348.45 K, 906.67 kPa, x2 = 0.698	23.97 ± 0.21
348.45 K, 999.4 kPa, x2 = 0.119	41.99 ± 0.25
348.45 K, 1401.8 kPa, x2 = 0.119	63.11 ± 0.39
348.45 K, 1687.6 kPa, x2 = 0.449	60.87 ± 0.59
348.45 K, 1759.4 kPa, x2 = 0.874	42.38 ± 0.5
348.45 K, 1892.6 kPa, x2 = 0.119	94.85 ± 0.8
348.45 K, 2299.3 kPa, x2 = 0.449	91.46 ± 1
348.45 K, 2405.8 kPa, x2 = 0.119	142.61 ± 1.4
348.45 K, 3317.7 kPa, x2 = 0.698	121.94 ± 1.4
348.46 K, 573.31 kPa, x2 = 0.259	20.69 ± 0.17
348.46 K, 830.53 kPa, x2 = 0.449	26.96 ± 0.24
348.46 K, 1654.8 kPa, x2 = 0.259	70.07 ± 0.69
348.46 K, 2452 kPa, x2 = 0.874	63.66 ± 0.73
348.46 K, 2967.9 kPa, x2 = 0.449	137.38 ± 1.6
348.47 K, 833.57 kPa, x2 = 0.259	31.08 ± 0.23
348.47 K, 847.11 kPa, x2 = 0.874	18.79 ± 0.22
348.47 K, 1190.6 kPa, x2 = 0.259	46.68 ± 0.36
348.47 K, 2210.4 kPa, x2 = 0.259	105.36 ± 1.3
348.47 K, 4171.1 kPa, x2 = 0.874	144.45 ± 2.5
348.48 K, 1231.2 kPa, x2 = 0.874	28.22 ± 0.32
348.51 K, 579.9 kPa, x2 = 0.874	12.51 ± 0.15
353.35 K, 1889.8 kPa, x2 = 0.698	54.07 ± 0.51
353.37 K, 1218.4 kPa, x2 = 0.449	40.48 ± 0.37
353.37 K, 2601.9 kPa, x2 = 0.698	81.21 ± 0.82
353.38 K, 577.17 kPa, x2 = 0.449	17.94 ± 0.16
353.38 K, 1943.6 kPa, x2 = 0.119	94.8 ± 0.65
353.38 K, 3382.4 kPa, x2 = 0.874	95.84 ± 1.1
353.39 K, 629.39 kPa, x2 = 0.698	15.96 ± 0.15
353.39 K, 707.68 kPa, x2 = 0.119	27.94 ± 0.15
353.39 K, 922.11 kPa, x2 = 0.698	23.97 ± 0.21
353.39 K, 1432.5 kPa, x2 = 0.119	63.08 ± 0.38
353.39 K, 1723.8 kPa, x2 = 0.449	60.85 ± 0.59
353.39 K, 2359.1 kPa, x2 = 0.449	91.42 ± 1
353.39 K, 3068.7 kPa, x2 = 0.449	137.31 ± 1.6
353.4 K, 582.53 kPa, x2 = 0.259	20.69 ± 0.16
353.4 K, 844.78 kPa, x2 = 0.449	26.95 ± 0.24
353.4 K, 1018.6 kPa, x2 = 0.119	41.97 ± 0.24
353.4 K, 1333.5 kPa, x2 = 0.698	36 ± 0.33
353.4 K, 1794.1 kPa, x2 = 0.874	42.37 ± 0.49
353.4 K, 2493.2 kPa, x2 = 0.119	142.52 ± 1.3
353.4 K, 2508.3 kPa, x2 = 0.874	63.64 ± 0.73
353.4 K, 3424.3 kPa, x2 = 0.698	121.92 ± 1.8
353.41 K, 1213.9 kPa, x2 = 0.259	46.67 ± 0.35
353.41 K, 1693 kPa, x2 = 0.259	70.07 ± 0.66
353.41 K, 2895.5 kPa, x2 = 0.259	158.94 ± 2
353.41 K, 4232.8 kPa, x2 = 0.698	183.2 ± 2.6
353.41 K, 4326.6 kPa, x2 = 0.874	144.29 ± 2.5
353.42 K, 848.3 kPa, x2 = 0.259	31.07 ± 0.22
